# Experimental data from US7868204B2, “Inhibitors of histone deacetylase” (MethylGene Inc., priority 2001, dated 2011).
# Read-outs that look alike come from different tables or passages of the source.
# Legend:
# HCT116 cells = test: MTT assay; assay type: cell-based; settings: Homo sapiens, HCT-116, 72 h, HCT116 cells, 72 hours
# In short: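 Read-out: MTT (0.5 mg/ml final, 4 h) after solubilization in 50% DMF/20% SDS, pH 4.7, with OD translated into cell number via the line's growth curve. Compound treatment lasted 72 h at 37 °C in 5% CO2, starting a day after plating.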
# [1] = target: T1, cloned recombinant human HDAC-1 (Homo sapiens, UniProt Q13547); test: Human HDAC-1 enzyme inhibition, Assay 1 ([3H]-acetylated histone substrate, scintillation counting); assay type: biochemical; settings: read-out: Human HDAC-1 IC50
# T1 construct: made in house; host or cells: Baculovirus insect cell expression system
# T1 sequence (Q13547 whole entry): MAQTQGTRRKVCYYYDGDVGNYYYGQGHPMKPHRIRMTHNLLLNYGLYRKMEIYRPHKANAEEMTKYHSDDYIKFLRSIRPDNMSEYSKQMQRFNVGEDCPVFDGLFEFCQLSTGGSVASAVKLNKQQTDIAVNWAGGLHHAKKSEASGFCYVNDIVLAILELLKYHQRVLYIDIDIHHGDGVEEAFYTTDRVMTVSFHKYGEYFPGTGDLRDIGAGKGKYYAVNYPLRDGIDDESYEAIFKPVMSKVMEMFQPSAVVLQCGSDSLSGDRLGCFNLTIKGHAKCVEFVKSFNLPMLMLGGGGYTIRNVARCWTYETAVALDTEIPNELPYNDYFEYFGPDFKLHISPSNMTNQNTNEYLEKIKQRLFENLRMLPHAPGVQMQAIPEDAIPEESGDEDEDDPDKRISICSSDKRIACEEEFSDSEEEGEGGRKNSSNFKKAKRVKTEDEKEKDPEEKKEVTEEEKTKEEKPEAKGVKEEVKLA
# In short: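 Activity read as [3H]-acetic acid liberated from labeled substrate, ethyl acetate-extracted and scintillation-counted. Compounds preincubated 30 min at 4° C. with baculovirus-expressed, purified human HDAC-1. Dose-response curves give IC50 as concentration producing fifty percent of maximal inhibition.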
# [2] = system: acetylated histone H-4 in T24 human bladder cancer cells; test: Histone H4 acetylation in whole cells by immunoblots; assay type: cell-based; settings: 16 h
# Experimental: T24 human bladder cancer cells growing in culture were incubated with HDAC inhibitors for 16 h. […] of total histone protein was loaded onto SDS/PAGE and transferred to nitrocellulose membranes. Membranes were probed with polyclonal antibodies specific for acetylated histone H-4 (Upstate Biotech Inc.), followed by horse radish peroxidase conjugated secondary antibodies (Sigma). Enhanced Chemiluminescence (ECL) (Amersham) detection was performed using Kodak films (Eastman Kodak). Acetylated H-4 signal was quantified by densitometry.
# [3] = T-24, Table 5a, read-out: H4Ac (T24) EC50
# [4] = T-24, Table 5c, read-out: H4Ac (T24) EC50
# [5] = T-24, Table 5E, read-out: H4 Ac (T24) EC50
# [6] = T-24, Table 5F, read-out: H4 Ac (T24) EC50
IC50 (HCT116 cells; Table 5a) [µM],IC50 ([1]; Table 5a) [µM],"EC50 [2, 3] [µM]",IC50 (HCT116 cells; Table 5E) [µM],IC50 ([1]; Table 5E) [µM],"EC50 [2, 5] [µM]",SMILES,other results
1,0.9,2,–,–,–,CC1(C)C2CC[C@@](C)(C2)[C@H]1Nc1nc(N)nc(NCc2ccc(C(=O)Nc3ccccc3N)cc2)n1 [Cpd 17],–
0.6,0.8,3,–,–,–,C=CCNc1nc(NCc2ccc(C(=O)Nc3ccccc3N)cc2)nc(NC2Cc3ccccc3C2)n1 [Cpd 18],–
1,0.9,1,–,–,–,Nc1ccccc1NC(=O)c1ccc(CNc2nc(NC3CC3)nc(NC3Cc4ccccc4C3)n2)cc1 [Cpd 19],–
0.3,0.5,1,–,–,–,"Nc1nc(NCCc2ccccc2)nc(NCc2ccc(C(=O)Nc3ccccc3N)cc2)n1 [Cpd 20, 4-[(4-Amino-6-phenethylamino-[1,3,5]triazin-2-ylamino)-methyl]-N-(2-amino-phenyl)-benzamide]",–
4,4,25,–,–,–,"COc1cc(Nc2nc(N)nc(NCc3ccc(C(=O)Nc4ccccc4N)cc3)n2)cc(OC)c1OC [Cpd 21, N-(2-Amino-phenyl)-4-{[4-amino-6-(3,4,5-trimethoxy-phenylamino)-[1,3,5]triazin-2-ylamino]-methyl}-benzamide]",–
0.8,3,1,–,–,–,"Nc1nc(NCc2ccc(C(=O)Nc3ccccc3N)cc2)nc(N2CCc3ccccc32)n1 [Cpd 22, 4-{[4-Amino-6-(2,3-dihydro-indol-1-yl)-[1,3,5]triazin-2-ylamino]-methyl}-N-(2-amino-phenyl)-benzamide]",–
0.7,2,1,–,–,–,"COc1ccccc1CCNc1nc(N)nc(NCc2ccc(C(=O)Nc3ccccc3N)cc2)n1 [Cpd 23, 4-({4-Amino-6-[2-(2-methoxy-phenyl)-ethylamino]-[1,3,5]triazin-2-ylamino}-methyl)-N-(2-amino-phenyl)-benzamide]",–
0.6,3,1,–,–,–,"Nc1nc(NCCc2ccccc2F)nc(NCc2ccc(C(=O)Nc3ccccc3N)cc2)n1 [Cpd 24, 4-({4-Amino-6-[2-(2-fluoro-phenyl)-ethylamino]-[1,3,5]triazin-2-ylamino)-methyl)-N-(2-amino-phenyl)-benzamide]",–
0.3,0.8,5,–,–,–,Nc1ccccc1NC(=O)c1ccc(CNc2nc(NCc3ccccc3)nc(NC3Cc4ccccc4C3)n2)cc1 [Cpd 25],–
0.5,2,1,–,–,–,Nc1nc(NCc2ccc(C(=O)Nc3ccccc3N)cc2)nc(N2Cc3ccccc3C2)n1 [Cpd 28],–
2,2,1,–,–,–,"Nc1nc(NCc2ccccc2)nc(NCc2ccc(C(=O)Nc3ccccc3N)cc2)n1 [Cpd 29, 4-[(4-Amino-6-benzylamino-[1,3,5]triazin-2-ylamino)-methyl]-N-(2-amino-phenyl)-benzamide]",–
3,1,1,–,–,–,Nc1ccccc1NC(=O)c1ccc(CNc2nc(NCc3cccnc3)nc(NC3Cc4ccccc4C3)n2)cc1 [Cpd 30],–
–,–,–,–,–,–,Nc1ccccc1NC(=O)/C=C/c1ccc(NC(=O)OCc2cccnc2)cc1 [Cpd 55b],"IC50 (HCT116 cells; Table 5c): 8 µM; IC50 ([1]; Table 5c): 3 µM; EC50 [2, 4]: 3 µM"
5,3,5,–,–,–,Nc1nc(NCc2ccc(/C=C/C(=O)Nc3ccccc3N)cc2)nc(NC2Cc3ccccc3C2)n1 [Cpd 83],–
–,–,–,–,–,–,"Nc1ccccc1NC(=O)/C=C/c1ccc(NCc2cccnc2)nc1 [Cpd 90, N-(2-aminophenyl)-3-{6-[(pyridin-3-ylmethyl)-amino]-pyridin-3-yl}-acrylamide]","IC50 (HCT116 cells; Table 5c): 5 µM; IC50 ([1]; Table 5c): 10 µM; EC50 [2, 4]: 5 µM"
–,–,–,–,–,–,"COc1ccc(CCNc2ccc(/C=C/C(=O)Nc3ccccc3N)cn2)cc1 [Cpd 95, N-(2-aminophenyl)-3-{6-[2-(4-methoxy-phenyl)-ethylamino]-pyridin-3-yl}-acrylamide]","IC50 (HCT116 cells; Table 5c): 2 µM; IC50 ([1]; Table 5c): 3 µM; EC50 [2, 4]: 10 µM"
–,–,–,–,–,–,"Nc1ccccc1NC(=O)/C=C/c1ccc(NCc2cc(F)cc(F)c2)nc1 [Cpd 100, N-(2-aminophenyl)-3-[6-(3,5-difluoro-benzylamino)-pyridin-3-yl]-acrylamide]","IC50 (HCT116 cells; Table 5c): 3 µM; IC50 ([1]; Table 5c): 4 µM; EC50 [2, 4]: 5 µM"
–,–,–,–,–,–,"Nc1ccccc1NC(=O)/C=C/c1ccc(NCc2cccc(C(F)(F)F)c2)nc1 [Cpd 101, N-(2-aminophenyl)-3-[6-(3-trifluoromethyl-benzylamino)-pyridin-3-yl]-acrylamide]","IC50 (HCT116 cells; Table 5c): 0.9 µM; IC50 ([1]; Table 5c): 3 µM; EC50 [2, 4]: 5 µM"
–,–,–,–,–,–,Nc1ccccc1NC(=O)/C=C/c1ccc(CNC(=O)OCc2cccnc2)cc1 [Cpd 104],"IC50 (HCT116 cells; Table 5c): 9 µM; IC50 ([1]; Table 5c): 10 µM; EC50 [2, 4]: 5 µM"
–,–,–,–,–,–,"COc1ccc(NCc2ccc(/C=C/C(=O)Nc3ccccc3N)cc2)cn1 [Cpd 109, N-(2-Amino-phenyl)-3-{4-[(6-methoxy-pyridin-3-ylamino)-methyl]-phenyl}-acrylamide]","IC50 (HCT116 cells; Table 5c): 8 µM; IC50 ([1]; Table 5c): 5 µM; EC50 [2, 4]: 15 µM"

IC50 (HCT116 cells; Table 5a) [µM],IC50 ([1]; Table 5a) [µM],"EC50 [2, 3] [µM]",IC50 (HCT116 cells; Table 5E) [µM],IC50 ([1]; Table 5E) [µM],"EC50 [2, 5] [µM]",SMILES,other results
–,–,–,–,–,–,Nc1ccccc1NC(=O)/C=C/c1ccc(NC/C=C/c2ccccc2)nc1 [Cpd 112],"IC50 (HCT116 cells; Table 5c): 5 µM; IC50 ([1]; Table 5c): 2 µM; EC50 [2, 4]: 5 µM"
–,–,–,0.3,1,5,"Nc1ccccc1NC(=O)c1ccc(CSc2nc3ccc(NCCN4CCOCC4)cc3s2)cc1 [Cpd 128, N-(2-Amino-phenyl)-4-[6-(2-morpholin-4-yl-ethylamino)-benzothiazol-2-ylsulfanylmethyl]-benzamide]",–
–,–,–,0.9,0.3,2,"Nc1ccccc1NC(=O)c1ccc(CSc2ccc3ccccc3n2)cc1 [Cpd 131, N-(2-Amino-phenyl)-4-(quinolin-2-ylsulfanylmethyl)-benzamide]",–
–,–,–,3,3,5,"Cn1ccnc1SCc1ccc(C(=O)Nc2ccccc2N)cc1 [Cpd 139, N-(2-Amino-phenyl)-4-(1-methyl-1H-imidazol-2-ylsulfanylmethyl]-benzamide]",–
–,–,–,5,1,5,"Nc1ccccc1NC(=O)c1ccc(CN2C(=O)c3ccccc3C2=O)cc1 [Cpd 149, N-(2-Amino-phenyl)-4-(1,3-dioxo-1,3-dihydro-isoindol-2-ylmethyl)-benzamide]",–
–,–,–,0.4,0.4,1,"Nc1ccccc1NC(=O)c1ccc(Cn2nnc3ccccc3c2=O)cc1 [Cpd 155, N-(2-Amino-phenyl)-4-(4-oxo-4H-benzo[d][1,2,3]triazin-3-ylmethyl)-benzamide]",–
–,–,–,5,2,5,COc1cccc(-c2ccc(C(=O)Nc3ccccc3N)cc2)c1 [Cpd 166],–
–,–,–,0.7,0.3,1,COc1cc(OC)nc(NCc2ccc(C(=O)Nc3ccccc3N)cc2)n1 [Cpd 169],–
–,–,–,3,8,25,COc1ccc(CSc2ccc(C(=O)Nc3ccccc3N)cn2)cc1 [Cpd 171],–
–,–,–,1,0.4,3,Nc1ccccc1NC(=O)c1ccc(CSc2nc3ccccc3s2)cc1 [Cpd 172],–
–,–,–,0.4,4,5,Nc1ccccc1NC(=O)c1ccc(NCCc2ccc(F)cc2)nc1 [Cpd 174],–
–,–,–,0.5,4,3,Nc1ccccc1NC(=O)c1ccc(NCc2ccc(F)cc2)nc1 [Cpd 175],–
–,–,–,0.4,1,1,Nc1ccccc1NC(=O)c1ccc(CSc2nnc(-c3ccccc3)o2)cc1 [Cpd 177],–
–,–,–,–,–,–,Nc1ccccc1NC(=O)c1ccc(Cn2c(=O)oc3ccccc3c2=O)cc1 [Cpd 179],"IC50 (HCT116 cells; Table 5F): 0.3 µM; IC50 ([1]; Table 5F): 1 µM; EC50 [2, 6]: 1 µM"
–,–,–,–,–,–,CCC1(C)CC(=O)N(Cc2ccc(C(=O)Nc3ccccc3N)cc2)C(=O)C1 [Cpd 180],"IC50 (HCT116 cells; Table 5F): 2 µM; IC50 ([1]; Table 5F): 3 µM; EC50 [2, 6]: 5 µM"
–,–,–,–,–,–,CCn1c(=O)n(Cc2ccc(C(=O)Nc3ccccc3N)cc2)c(=O)c2ccccc21 [Cpd 181],"IC50 (HCT116 cells; Table 5F): 0.4 µM; IC50 ([1]; Table 5F): 0.5 µM; EC50 [2, 6]: 1 µM"
–,–,–,–,–,–,Nc1ccccc1NC(=O)c1ccc(-c2cccc(CNC3Cc4ccccc4C3)c2)cc1 [Cpd 186],"IC50 (HCT116 cells; Table 5F): 2 µM; IC50 ([1]; Table 5F): 2 µM; EC50 [2, 6]: 2 µM"
–,–,–,–,–,–,Nc1ccccc1NC(=O)c1ccc(-c2cccc(CNCc3ccccn3)c2)cc1 [Cpd 187],"IC50 (HCT116 cells; Table 5F): 5 µM; IC50 ([1]; Table 5F): 2 µM; EC50 [2, 6]: 2 µM"
–,–,–,–,–,–,"COc1cc(NCc2ccc(-c3ccc(C(=O)Nc4ccccc4N)cc3)cc2)cc(OC)c1OC [Cpd 189, N-(2-Amino-phenyl)-4-[4-{(3,4,5-trimethoxy-phenylamino)-methyl}-phenyl]-benzamide]","IC50 (HCT116 cells; Table 5F): 2 µM; IC50 ([1]; Table 5F): 3 µM; EC50 [2, 6]: 5 µM"
–,–,–,–,–,–,"COc1ccc(NCc2ccc(-c3ccc(C(=O)Nc4ccccc4N)cc3)cc2)cc1 [Cpd 190, N-(2-Amino-phenyl)-4-[4-{(4-methoxy-phenylamino)-methyl}-phenyl]-benzamide]","IC50 (HCT116 cells; Table 5F): 1 µM; IC50 ([1]; Table 5F): 3 µM; EC50 [2, 6]: > 5 µM"
